Converted amounts (≈) assume the structure as drawn.
Conditions: buffer; pH 7.4; 200.0 µM
Work on C/[N+]([O-])=C/c1c(OCc2ccccc2)ccc2ccccc12 yielded a solubility kinetic greater than 43.7 µg/mL.
With Nc1ncnc2c1ncn2C1OC(C(=O)NC2CC2)C(O)C1O (centres undefined) the solubility kinetic was greater than 48 µg/mL.
With COC(=O)C(Cc1ccccc1)NC(=O)CCNC(=O)c1ccco1 (centres undefined) the solubility kinetic was greater than 51.7 µg/mL.
Work on COc1ccc(CC(=O)OCC(=O)NC2CCCC(C)C2C)cc1 (centres undefined) yielded a solubility kinetic greater than 50 µg/mL.
For Cc1cc(NC(=O)c2cc([N+](=O)[O-])cc([N+](=O)[O-])c2C)no1, the solubility kinetic was 38.9 µg/mL (≈ 127 µM).
Work on COc1ccccc1NC(=O)NCCCCc1ccccc1 yielded a solubility kinetic of 5.3 µg/mL (≈ 17.8 µM).
In the case of CC(=O)Oc1ccc2oc(-c3ccccc3)c(C(N)=O)c2c1, the solubility kinetic is reported as 1.4 µg/mL (≈ 4.74 µM).
Br.COc1ccccc1N1CCN(CCCCN2C(=O)c3ccccc3C2=O)CC1 gave a solubility kinetic greater than 71.2 µg/mL.
With O=C(CNS(=O)(=O)c1ccccc1)N1CCc2ccccc2C1 the solubility kinetic was greater than 49.6 µg/mL.
With O=C(Nc1cc(Cl)cc(Cl)c1)N1CCCC1 the solubility kinetic was 34.6 µg/mL (≈ 134 µM).
For COc1ccccc1NC(=O)CSc1nncs1, the solubility kinetic was greater than 42.2 µg/mL.
Cc1cccc(-n2c(C)cc(C(=S)N3CCOCC3)c2C)c1C showed a solubility kinetic of 28.2 µg/mL (≈ 85.8 µM).
With CCN1CCCC1CNC(=O)c1cc2cc(OC)c(OC)cc2[nH]1 (centres undefined) the solubility kinetic was greater than 49.7 µg/mL.
Work on CCn1c(=O)c2sccc2n(Cc2ccccc2)c1=O yielded a solubility kinetic of 8.9 µg/mL (≈ 31.1 µM).
For Cc1cc(S(=O)(=O)NCc2cccnc2)ccc1F, the solubility kinetic was 33.7 µg/mL (≈ 120 µM).
In the case of O=C(Oc1c(-c2ccccc2)c(=O)n2c3c(cccc13)CC2)c1cccc([N+](=O)[O-])c1, the solubility kinetic is reported as 5.2 µg/mL (≈ 12.6 µM).
Work on CC(C)C(NC(=O)C1CCCCC1)C(=O)NC1CCCC(C)C1C (centres undefined) yielded a solubility kinetic of 3.9 µg/mL (≈ 11.6 µM).
For Cc1noc(C(=O)Nc2cccc(Cl)c2)c1Cl, the solubility kinetic was 2 µg/mL (≈ 7.38 µM).
With COc1ccc2cc(C(C)C(=O)N3CCC(C(N)=O)CC3)ccc2c1 (centres undefined) the solubility kinetic was greater than 51.1 µg/mL.
In the case of CC(C)C1Oc2ccccc2N(CC(=O)NC2CCCCC2)C1=O (centres undefined), the solubility kinetic is reported as greater than 49.6 µg/mL.
CC(=O)Nc1ccc2c(COC(=O)[C@@H](NS(=O)(=O)c3ccc(C)cc3)C(C)C)cc(=O)oc2c1 showed a solubility kinetic of 8.6 µg/mL (≈ 17.7 µM).
Work on COc1cccc2cc(C(=O)NCCN3CCOCC3)c(=O)oc12 yielded a solubility kinetic greater than 49.9 µg/mL.
For Cc1cc(SCC(=O)N2CCCC2=O)nc2ccccc12, the solubility kinetic was 11.2 µg/mL (≈ 37.3 µM).
Molecule C1CN(c2nc3nonc3nc2N2CCSCC2)CCO1 has a solubility kinetic of 41.1 µg/mL (≈ 133 µM).
In the case of C=CCN1CCN(C(=O)CCc2ccccc2)CC1, the solubility kinetic is reported as 35.6 µg/mL (≈ 138 µM).
CC(c1ccccc1)N1CCc2[nH]c(=S)[nH]c(=O)c2C1 (centres undefined) showed a solubility kinetic of 19.9 µg/mL (≈ 69.2 µM).
Molecule O=C(CN1C(=O)c2ccc([N+](=O)[O-])cc2C1=O)Nc1nccs1 has a solubility kinetic of 26.2 µg/mL (≈ 78.8 µM).
CCOc1ccc(C(=S)N2CCCC2)c(OCC)c1 showed a solubility kinetic greater than 41.9 µg/mL.
COc1ccc(/C=C/C(=O)OCc2cccc([N+](=O)[O-])c2)cc1 showed a solubility kinetic of less than 0.7 µg/mL.
Cc1cccc(N2C(=O)C3C4C=CC(C5CC45)C3C2=O)n1 (centres undefined) gave a solubility kinetic of 36.5 µg/mL (≈ 130 µM).
For CC(=O)Oc1ccc(C(=O)Nc2cccc(C(=O)NC(C)(C)C)c2)cc1, the solubility kinetic was 45 µg/mL (≈ 127 µM).
COc1ccc(NC(=O)C(=S)N2CCCC2)cc1 gave a solubility kinetic greater than 39.7 µg/mL.
COC(=O)c1sccc1S(=O)(=O)Nc1ccc(C)cc1 gave a solubility kinetic of 5 µg/mL (≈ 16.1 µM).
Molecule COc1cc(OC)c2c(c1)S(=O)(=O)C(c1ccccc1)=C2N has a solubility kinetic of 5.1 µg/mL (≈ 16.1 µM).
Work on O=C(Nc1ccccc1C(=O)NCCc1ccccc1)c1cnccn1 yielded a solubility kinetic of 3.2 µg/mL (≈ 9.24 µM).
O=Cc1cn(CC(=O)N2CCc3ccccc32)c2ccccc12 showed a solubility kinetic of 0.4 µg/mL (≈ 1.31 µM).
Cc1[nH]n(-c2ccccc2)c(=O)c1/C=N/NC(=O)c1cccc(F)c1 showed a solubility kinetic greater than 50.8 µg/mL.
Molecule O=S(=O)(NC(=S)c1ccccc1)c1ccc(F)cc1 has a solubility kinetic greater than 44.3 µg/mL.
CSc1cccc(NC(=O)CC2Oc3ccccc3NC2=O)c1 (centres undefined) showed a solubility kinetic of 1.8 µg/mL (≈ 5.48 µM).
With O=C(Nc1cccc(NC(=O)c2cccnc2)c1)c1ccccc1 the solubility kinetic was 21.9 µg/mL (≈ 69 µM).
In the case of CCN(C(=O)N1CCOCC1)c1ccccc1C, the solubility kinetic is reported as 26 µg/mL (≈ 105 µM).
CCOC(=O)c1[nH]c(C)c(CC(C)C)c1C gave a solubility kinetic of 24 µg/mL (≈ 107 µM).
With C=CCOc1cccc(CNCc2ccncc2)c1 the solubility kinetic was 28 µg/mL (≈ 110 µM).
Molecule CCCNC(=O)N1CCC(c2nc3ccccc3s2)CC1 has a solubility kinetic greater than 45.5 µg/mL.
In the case of O=C(CCc1ccccc1)Nc1nc2c(F)cc(F)cc2s1, the solubility kinetic is reported as 4 µg/mL (≈ 12.6 µM).
Cc1ccc(C)c(OCc2cc(C(=O)N3CCOCC3)no2)c1 gave a solubility kinetic of 42.1 µg/mL (≈ 133 µM).
Molecule CCCCC(=O)Nc1ccccc1N1CCN(c2ccccc2)CC1 has a solubility kinetic of 8.1 µg/mL (≈ 24 µM).
Work on COc1ccc(Nc2ccncc2[N+](=O)[O-])cc1 yielded a solubility kinetic greater than 36.8 µg/mL.
CC(C)(C)C(=O)Oc1cccc(Nc2ncnc3ccccc23)c1 gave a solubility kinetic of 34.1 µg/mL (≈ 106 µM).
Nc1ccc(-c2ccc(N)c(C(=O)O)c2)cc1C(=O)O gave a solubility kinetic greater than 40.8 µg/mL.
CSc1ccccc1NC(=O)CN1c2ccccc2CC1C (centres undefined) showed a solubility kinetic of 11.9 µg/mL (≈ 38.1 µM).
In the case of Cc1cn2c(=O)c(C(=O)N3CCN(c4ccccc4F)CC3)cnc2s1, the solubility kinetic is reported as greater than 55.9 µg/mL.
In the case of Cn1c(CCNC(=O)c2ccco2)nc2cc([N+](=O)[O-])ccc21, the solubility kinetic is reported as 43.1 µg/mL (≈ 137 µM).
CC(=O)N1CCN(c2ccccc2NC(=O)COc2ccccc2C)CC1 gave a solubility kinetic of 49.7 µg/mL (≈ 135 µM).
Work on CCCCn1c(=O)c(C(=O)Nc2ccccc2N)c(O)c2ccccc21 yielded a solubility kinetic of less than 0.3 µg/mL.
In the case of O=Cc1ccc(-c2cccc([N+](=O)[O-])c2)o1, the solubility kinetic is reported as 6.3 µg/mL (≈ 29 µM).
CC(C)(C)NC(=O)c1ccc2c(c1)CCO2 gave a solubility kinetic greater than 32.9 µg/mL.
COC(=O)c1sccc1NC(=O)Nc1cccc([N+](=O)[O-])c1 showed a solubility kinetic of 5.7 µg/mL (≈ 17.7 µM).
CN1C(=O)CCC(CCC(=O)O)(c2ccccc2O)C1=O (centres undefined) gave a solubility kinetic greater than 43.7 µg/mL.

From PubChem BioAssay AID1996
